The values below come from patent publication US6255285A, “Phenethylamine derivatives” (Chugai Seiyaku Kabushiki Kaisha, priority 1997, dated 2001).

For orientation: IC50 means the concentration that gives 50% inhibition.

Square brackets hold non-standard residues; d marks the D form. Peptide text beside a SMILES is read from it. Tyr(3-tBu) = CC(C)(C)c1cc(C[CH](N)C(=O)O)ccc1O; Phg = N[CH](C(=O)O)c1ccccc1

One assay concerns the target T1, motilin receptor (Oryctolagus cuniculus, UniProt G1T803).
T1 construct: had the mucous membrane separated and homogenized in 50 mM Tris-HCl buffer to prepare a receptor sample; from tissue; host or cells: rabbit duodenum with the mucosa removed, homogenate
Description: Motilin receptor binding test. The settings on record: rabbit duodenum homogenate, 125I motilin 25 pM; concentration reducing specific binding by 50%. As to the method: Motilin Receptor Binding Test
A motilin receptor binding test was conducted in the following manner [Bormans et al., Regul. Peptides, 15, 143 (1986)]. The duodenum was extracted from a slaughtered rabbit, had the mucous membrane separated and homogenized in 50 mM Tris-HCl buffer to prepare a receptor sample. The sample was incubated together with ^125 I motilin 25 pM and thereafter the radioactivity bound to the receptor was measured. Specific binding was defined as the difference between the radioactivity in the case of adding 1% DMSO in place of the compounds of the examples and that in the case of adding a great excess amount of motilin (10^-7 M). The activity of each compound was expressed by IC50 (in nM), as the concentration sufficient to reduce the specific binding by 50%.

Assay [1] relates to motilin-induced contraction of a specimen of longitudinal muscle in the duodenum extracted from a rabbit. Nature of the assay: Contraction suppressing test: action on motilin-induced contraction of duodenum longitudinal muscle specimen. The assay is classed as cell-based. The following applies: rabbit duodenum specimen in organ bath, Krebs solution 28° C.; effect on dose-dependent contraction by motilin. As to the method:
Action on the Contraction of a Specimen of Longitudinal Muscle in the Duodenum Extracted from a Rabbit
The action on the motilin-induced contraction of a specimen of longitudinal muscle in the duodenum extracted from a rabbit was investigated by the following method. A duodenum specimen extracted from a slaughtered rabbit (3×10 mm) was suspended in an organ bath (10 ml) such that the longitudinal muscle would run vertically; the bath was filled with a Krebs solution kept at 28° C. A mixed gas (95% O2 and 5% CO2) was continuously bubbled into the Krebs solution and the contraction of the duodenum specimen was recorded isotonically (with a 1-g load) via an isotonic transducer (TD-111T of Nihon Koden, K.K.) The degree of contraction was expressed in relative values, with the contraction by acetylcholine at a dose of 10^-4 M being taken as 100%. The activity of each compound was calculated as pA2 value indicating its effect on the dose-dependent muscle contraction by the motilin put into the organ bath.

T1 sequence (G1T803 1-400): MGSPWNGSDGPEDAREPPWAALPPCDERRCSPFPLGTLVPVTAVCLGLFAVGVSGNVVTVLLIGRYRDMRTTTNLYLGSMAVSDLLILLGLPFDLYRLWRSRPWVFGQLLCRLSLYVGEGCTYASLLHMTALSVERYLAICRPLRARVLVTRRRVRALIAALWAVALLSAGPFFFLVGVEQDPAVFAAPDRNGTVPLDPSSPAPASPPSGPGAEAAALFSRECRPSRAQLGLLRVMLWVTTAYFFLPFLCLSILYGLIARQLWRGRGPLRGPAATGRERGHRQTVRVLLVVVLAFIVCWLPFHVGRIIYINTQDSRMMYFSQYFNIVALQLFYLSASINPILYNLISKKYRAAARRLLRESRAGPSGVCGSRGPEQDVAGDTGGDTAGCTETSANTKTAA

Regarding `CC(Cc1ccc(O)c(C(C)(C)C)c1)NC(=O)C(C(C)C)N(C)C(=O)[C@@H](N)Cc1ccccc1` (some centres unmarked) [Example 118, N-[2-(3-tert-butyl-4-hydroxyphenyl)-1-methylethyl]-3-methyl-2-(N-methyl-N-phenylalanylamino)butanamide], on motilin receptor, the IC50 was found to be 1.9 nM. In addition, the “Contraction suppressing test, pA2” value in assay [1] stood at 8.43.
Take `CC(C)[C@@H](C(=O)N(C)[C@@H](Cc1ccc(O)c(C(C)(C)C)c1)C(N)=O)N(C)C(=O)[C@@H](N)Cc1ccccc1` [Example 119, Phe-N-Me-Val-N-Me-Tyr(3-tBu)-NH2] (HELM PEPTIDE1{F.[meV].[CN([C@@H](Cc1ccc(O)c(C(C)(C)C)c1)C(=O)[*:2])[*:1]].[am]}$$$$V2.0): the IC50 at motilin receptor stood at 4.3 nM. Further, in assay [1], the “Contraction suppressing test, pA2” value was 8.59.
The corresponding values for `CN(C(=O)C(N)Cc1ccccc1)C(C(=O)NC(Cc1ccc(O)c(C(C)(C)C)c1)C(N)=O)c1ccccc1` [Example 18B, Phe-N-Me-D-Phg-Tyr(3-tBu)-NH2] are 3.7 nM and 8.58.
Take `CC(C)(C)c1cc(CC(NC(=O)C(NC(=O)C(N)Cc2ccccc2)c2ccccc2)C(N)=O)ccc1O` (stereo not drawn) [Example 5, Phe-Phg-Tyr(3-tBu)-NH2] (H-Phe-[Phg]-[Tyr(3-tBu)]-NH2; configuration not given here): the half-maximal inhibitory concentration (IC50) at motilin receptor stood at 12 nM. In addition, the “Contraction suppressing test, pA2” value in assay [1] turned out to be 7.81.
